Consider five compounds from ChEMBL document CHEMBL1201862, “PubChem BioAssay data set” (2004).

One may read the EC50 as the concentration that produces a half-maximal response. As usually defined, the AC50 is the midpoint of the concentration-response curve, whichever way the signal moves. By IC50 is commonly meant the concentration that inhibits the measured activity by half.

Activity calls are given as the source filed them. Bounds are passed on as bounds.

The nature of experiment [1]: Counterscreen for activators of the function of SWI/SNF related, matrix associated, actin dependent regulator of chromatin, subfamily a, member 2 (SMARCA2, BRM): Luminescence-based cell-based high throughput dose response assay to identify non-selective compounds using the VP16 reporter assay. Type of experiment: functional. In general terms: The purpose of a counterscreen is to sort out artefacts and off-target activity.

The target of experiment [2] is Dual specificity tyrosine-phosphorylation-regulated kinase 1A (Rattus norvegicus, UniProt Q63470). Type of experiment: biochemical, Homo sapiens.
In experiment [3] the target is T1, Nuclear receptor subfamily 0 group B member 1 (Homo sapiens, UniProt P51843).
T1 sequence (P51843 whole entry): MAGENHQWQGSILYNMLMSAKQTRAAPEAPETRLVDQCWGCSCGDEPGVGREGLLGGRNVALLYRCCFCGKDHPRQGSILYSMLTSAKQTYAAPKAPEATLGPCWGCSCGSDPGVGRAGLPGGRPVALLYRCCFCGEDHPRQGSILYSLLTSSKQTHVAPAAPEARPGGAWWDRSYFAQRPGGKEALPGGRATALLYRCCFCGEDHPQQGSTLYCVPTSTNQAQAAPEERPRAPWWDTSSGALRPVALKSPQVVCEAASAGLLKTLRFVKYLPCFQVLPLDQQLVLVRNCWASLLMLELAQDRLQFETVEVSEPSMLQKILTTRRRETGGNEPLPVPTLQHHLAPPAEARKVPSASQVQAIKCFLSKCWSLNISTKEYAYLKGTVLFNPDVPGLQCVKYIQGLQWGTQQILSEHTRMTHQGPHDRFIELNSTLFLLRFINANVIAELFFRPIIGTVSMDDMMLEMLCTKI
As to the kind of experiment: Luminescence-based cell-based high throughput dose response assay for inhibitors of the orphan nuclear receptor subfamily 0, group B, member 1 (DAX1; NR0B1). [Related pubchem assays (depositor defined):AID504766, AID504790]. Type of experiment: functional.

Experiment [4] concerns the target Cyclin-dependent kinase 5/CDK5 activator 1 (Homo sapiens, UniProt Q00535). Briefly: CDK5/p35 kinase inhibitors, dose response, biochemical, cherry-picked samples, set 2 (AID 504545).
The subject of experiment [5] is HEK293. Briefly: cells. As to conditions: Homo sapiens. Type of experiment: functional, cell-based.
The target in experiment [6] is 5-hydroxytryptamine receptor 2A (Mus musculus, UniProt P35363). The class given is functional, cell-based.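 Further: CHO-K1 cells with tagged receptor and beta-arrestin; agonist potency measured as compound-induced activation of the receptor.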
The target of experiment [7] is T2, Oxysterols receptor LXR-beta (Homo sapiens, UniProt P55055).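 Further: agonist activity at LXR measured by a cell-based luminescence readout across a dose range, run as a counterscreen for daf-12 agonists; HEK293 cells with Gal4-LXR fusion and GAL4-driven luciferase reporter; potency for activation of Gal4-LXR reporter so compounds are agonists.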
T2 sequence (P55055 whole entry): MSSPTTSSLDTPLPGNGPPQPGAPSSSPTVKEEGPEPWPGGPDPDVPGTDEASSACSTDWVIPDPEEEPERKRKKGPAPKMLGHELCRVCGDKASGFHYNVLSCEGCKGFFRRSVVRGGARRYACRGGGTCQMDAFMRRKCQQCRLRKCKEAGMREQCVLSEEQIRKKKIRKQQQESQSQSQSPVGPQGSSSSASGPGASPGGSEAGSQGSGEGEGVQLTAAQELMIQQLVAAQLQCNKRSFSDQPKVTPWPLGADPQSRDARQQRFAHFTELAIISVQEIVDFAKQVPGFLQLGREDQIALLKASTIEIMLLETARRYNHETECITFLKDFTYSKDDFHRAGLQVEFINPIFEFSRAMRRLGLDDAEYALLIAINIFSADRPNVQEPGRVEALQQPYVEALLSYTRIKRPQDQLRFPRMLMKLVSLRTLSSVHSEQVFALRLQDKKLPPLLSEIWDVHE
The class given is functional, cell-based.

Another experiment has as its target Mu-type opioid receptor (Homo sapiens, UniProt P35372). The class given is functional, cell-based.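 Further: U2OS cells with beta-arrestin recruitment to OPRM1 by beta-gal complementation.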
Experiment [8] has as its target SWI/SNF-related matrix-associated actin-dependent regulator of chromatin subfamily A member 2 (Homo sapiens, UniProt P51531). As to the kind of experiment: Luminescence-based cell-based high throughput dose response assay to identify activators of the function of SWI/SNF related, matrix associated, actin dependent regulator of chromatin, subfamily a, member 2 (SMARCA2, BRM). Type of experiment: functional.

Experiment [9] in a line: CellTiter-Glo luminescent dose response of DLD-1 viability loss (AID 1117352). Type of experiment: functional. On the technique in general: Cellular ATP, detected with luciferase, serves as a proxy for viable cell number.
The nature of experiment [10]: cytotoxicity toward Colo320 cells – cell-based, CellTiter-Glo luminescence, IC50, dose response (AID 1117334). Type of experiment: functional. The note with it: COLO 320.
Experiment [11] in a line: HCT116 cell viability decrease, GSK3B pretreatment – CellTiter-Glo, IC50, dose response (AID 1117339). The class given is functional. As to conditions: HCT-116.
A short description of experiment [12]: cytotoxicity toward HCT116 cells – cell-based, CellTiter-Glo luminescence, IC50, dose response (AID 1117332). Type of experiment: functional. As to conditions: HCT-116.
Experiment [13] deals with NACHT, LRR and PYD domains-containing protein 3 (Homo sapiens, UniProt Q96P20). Briefly: NALP3 inhibitors in yeast, dose response, luminescent (AID 488799). Type of experiment: functional.
The nature of experiment [14]: SNU-C1 cell viability reduction, dose response, CellTiter-Glo luminescence (AID 1117323). Type of experiment: functional, cell-based.
The target in experiment [15] is Aryl hydrocarbon receptor (Homo sapiens, UniProt P35869). As to conditions: Potency.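 Further: confirmatory quantitative high-throughput screen measuring activation of the AhR signaling pathway.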
A further experiment relates to INS1. As to the kind of experiment: beta cell apoptosis inhibitors, cytokine rescue, dose response, luminescence, retest (AID 449756).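 Further: cell death triggered by IL-1 beta plus TNF-alpha plus IFN-gamma mixture; protective hits raise ATP signal compared with cytokine alone wells.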 The class given is functional, cell-based. The note with it: Rattus norvegicus.
The nature of experiment [16]: Concentration-dependent survival of SW480 colon cancer line, luminescence detection with CellTiter-Glo, half-maximal inhibitory concentration (AID 1117338). The class given is functional.
Experiment [17] in a line: cytotoxicity toward HT-29 cells – cell-based, CellTiter-Glo luminescence, IC50, dose response (AID 1117330). The class given is functional.
A short description of experiment [18]: RKO cell viability reduction, dose response, CellTiter-Glo luminescence (AID 1117322). Type of experiment: functional.
Experiment [19] deals with Cystic fibrosis transmembrane conductance regulator/Golgi-associated PDZ and coiled-coil motif-containing protein (Homo sapiens, UniProt P13569+Q9HD26). As to the kind of experiment: CAL PDZ peptide-binding inhibitors, dose response, biochemical, fluorescence polarization, Cerulean-tagged CAL PDZ, cherry-picks (AID 504773). Background: Fluorescence polarisation rises when a labelled molecule tumbles more slowly, as on binding a larger partner.

The target of another experiment is Tumor necrosis factor (Homo sapiens, UniProt P01375). As to the kind of experiment: TNFa-triggered NF-kB activation inhibitors, SAR follow-up, cell-based, revised (AID 2337). The class given is functional.
Experiment [20] addresses Nucleotide-binding oligomerization domain-containing protein 2 (Homo sapiens, UniProt Q9HC29). As to the kind of experiment: PubChem AID 2334. Type of experiment: functional.
In experiment [21] the target is Nucleotide-binding oligomerization domain-containing protein 1 (Homo sapiens, UniProt Q9Y239). As to the kind of experiment: NOD1 signaling inhibitors, SAR follow-up, revised (AID 2333). The class given is functional.
For experiment [22], the system named is Streptococcus sp. 'group A'. As to the kind of experiment: growth inhibition of control SK(-) GAS strain, dose response, counter-screen for streptokinase expression inhibitor project, luminescence, kanamycin, BacTiterGlo, confirmation (AID 1900). The class given is functional, organism-based. The note with it: read-out: EC50.
A further experiment has as its system Streptococcus. Briefly: Group A Streptococcus viability loss, dose response, counter-screen for streptokinase expression inhibitor project, luminescence, BacTiterGlo (AID 1915).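 Further: potency for reduction of bacterial viability or growth.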 Type of experiment: functional, organism-based.
Another experiment addresses T3, Streptokinase A (Streptococcus pyogenes serotype M1, UniProt P10520).
T3 sequence (P10520 whole entry): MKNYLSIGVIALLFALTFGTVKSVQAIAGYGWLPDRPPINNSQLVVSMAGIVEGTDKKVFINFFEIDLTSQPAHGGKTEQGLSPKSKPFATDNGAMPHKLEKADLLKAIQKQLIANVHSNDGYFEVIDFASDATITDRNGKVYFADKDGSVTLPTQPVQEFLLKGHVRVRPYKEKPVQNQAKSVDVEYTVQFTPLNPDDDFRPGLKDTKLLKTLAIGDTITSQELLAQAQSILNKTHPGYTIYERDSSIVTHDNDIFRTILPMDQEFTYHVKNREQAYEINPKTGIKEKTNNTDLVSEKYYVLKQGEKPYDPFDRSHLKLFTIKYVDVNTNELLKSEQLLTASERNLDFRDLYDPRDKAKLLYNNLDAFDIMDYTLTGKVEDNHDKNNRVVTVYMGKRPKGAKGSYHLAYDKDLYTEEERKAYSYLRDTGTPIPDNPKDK
Briefly: S. pyogenes streptokinase expression inhibitors, potency, dose response, plasminogen activation absorbance, OD405 (AID 1914).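 Further: secreted streptokinase activity via plasminogen activation per viability signal from cell pellet.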 The class given is functional, Streptococcus pyogenes M1 GAS.

In another experiment the test system is H9c2. As to the kind of experiment: cells. Type of experiment: functional, cell-based. As to conditions: Rattus norvegicus, H9c2, Myocardium.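 Further: confirmatory concentration-response retest of ultra-high-throughput screening hits for modulation of myocardial damage; cell death induced by hydrogen peroxide oxidative stress; compound pretreatment for 60 min then peroxide exposure for 2 h; potency is for protecting the cells against peroxide damage rather than for killing them.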
For experiment [23], the system named is HEK293. Briefly: cells. The note with it: Homo sapiens.
The subject of experiment [24] is Vibrio harveyi. As to the kind of experiment: inhibitors of AI-2 quorum sensing in V. harveyi, dose response, LuxS, LuxPQ, dry powder, set 2 (AID 493072). The class given is functional, organism-based.
Experiment [25] relates to Vibrio harveyi. As to the kind of experiment: Quorum Sensing, LuxS, LuxPQ Measured in Microorganism System Using Plate Reader - 2035-01_Inhibitor_DoseNoFile_DryPowder_Activity. [Related pubchem assays (depositor defined):AID2106]. Type of experiment: functional, organism-based.

Chain of Tumor necrosis factor (P01375 whole entry, the tested form may be a part): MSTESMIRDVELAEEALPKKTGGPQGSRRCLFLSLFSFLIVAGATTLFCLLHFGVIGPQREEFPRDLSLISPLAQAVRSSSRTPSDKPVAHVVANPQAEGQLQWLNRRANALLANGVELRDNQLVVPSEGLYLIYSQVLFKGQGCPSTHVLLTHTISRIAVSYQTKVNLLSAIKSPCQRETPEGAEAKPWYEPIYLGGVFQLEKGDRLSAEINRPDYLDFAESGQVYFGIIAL
Chain of SWI/SNF-related matrix-associated actin-dependent regulator of chromatin subfamily A member 2 (P51531 whole entry): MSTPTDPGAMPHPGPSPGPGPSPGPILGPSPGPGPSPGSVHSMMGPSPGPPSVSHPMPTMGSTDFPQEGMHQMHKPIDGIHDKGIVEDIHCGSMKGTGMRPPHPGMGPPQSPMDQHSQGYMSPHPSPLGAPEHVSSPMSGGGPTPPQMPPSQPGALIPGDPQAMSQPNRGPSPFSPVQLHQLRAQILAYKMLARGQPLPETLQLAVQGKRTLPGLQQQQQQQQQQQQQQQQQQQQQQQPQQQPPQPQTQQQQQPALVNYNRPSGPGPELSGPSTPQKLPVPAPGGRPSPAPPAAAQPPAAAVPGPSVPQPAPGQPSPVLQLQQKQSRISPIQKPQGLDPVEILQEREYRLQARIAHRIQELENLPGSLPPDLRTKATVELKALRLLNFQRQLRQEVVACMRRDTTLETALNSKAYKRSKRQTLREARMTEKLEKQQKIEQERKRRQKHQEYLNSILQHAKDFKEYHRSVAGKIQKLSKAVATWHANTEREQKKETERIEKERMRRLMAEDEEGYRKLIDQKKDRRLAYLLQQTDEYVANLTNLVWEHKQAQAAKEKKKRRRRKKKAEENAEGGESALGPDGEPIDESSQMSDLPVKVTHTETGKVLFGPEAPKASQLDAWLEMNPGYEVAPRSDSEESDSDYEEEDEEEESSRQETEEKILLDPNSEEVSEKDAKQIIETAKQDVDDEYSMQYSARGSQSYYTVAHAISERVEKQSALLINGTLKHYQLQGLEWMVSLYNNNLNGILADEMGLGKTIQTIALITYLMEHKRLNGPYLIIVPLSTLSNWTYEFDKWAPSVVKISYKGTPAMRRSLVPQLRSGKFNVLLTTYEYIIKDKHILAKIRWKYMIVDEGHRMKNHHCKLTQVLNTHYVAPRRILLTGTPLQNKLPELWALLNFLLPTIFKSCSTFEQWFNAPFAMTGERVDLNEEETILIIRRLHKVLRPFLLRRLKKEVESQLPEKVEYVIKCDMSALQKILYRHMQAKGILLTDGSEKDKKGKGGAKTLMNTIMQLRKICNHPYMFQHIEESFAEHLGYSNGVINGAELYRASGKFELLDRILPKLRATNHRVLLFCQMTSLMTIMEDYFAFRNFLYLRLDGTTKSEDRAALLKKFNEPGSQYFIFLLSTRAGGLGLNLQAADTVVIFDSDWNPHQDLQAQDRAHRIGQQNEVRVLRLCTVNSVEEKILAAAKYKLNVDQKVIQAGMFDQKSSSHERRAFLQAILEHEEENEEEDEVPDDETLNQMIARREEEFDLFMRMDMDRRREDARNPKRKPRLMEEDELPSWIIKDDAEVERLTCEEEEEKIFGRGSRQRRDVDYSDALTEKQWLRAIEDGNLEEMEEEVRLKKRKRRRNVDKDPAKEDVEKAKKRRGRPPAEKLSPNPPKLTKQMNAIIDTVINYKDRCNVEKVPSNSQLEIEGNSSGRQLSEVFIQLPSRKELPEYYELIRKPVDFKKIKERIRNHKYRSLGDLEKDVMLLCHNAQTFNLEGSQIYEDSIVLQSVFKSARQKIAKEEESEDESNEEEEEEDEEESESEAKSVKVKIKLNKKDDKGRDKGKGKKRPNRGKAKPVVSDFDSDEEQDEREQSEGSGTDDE
Chain of Cyclin-dependent kinase 5/CDK5 activator 1 (Q00535 whole entry): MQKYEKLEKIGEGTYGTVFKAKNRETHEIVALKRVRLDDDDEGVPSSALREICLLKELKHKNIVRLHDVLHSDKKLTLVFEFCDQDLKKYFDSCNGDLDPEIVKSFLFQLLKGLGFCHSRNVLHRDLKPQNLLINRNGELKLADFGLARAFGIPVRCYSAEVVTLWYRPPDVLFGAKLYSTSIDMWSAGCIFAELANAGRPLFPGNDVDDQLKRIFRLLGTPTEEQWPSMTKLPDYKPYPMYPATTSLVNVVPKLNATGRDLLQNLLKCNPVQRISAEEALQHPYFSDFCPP
Chain of Cyclin-dependent kinase 5/CDK5 activator 1 (Q15078 whole entry, further chain): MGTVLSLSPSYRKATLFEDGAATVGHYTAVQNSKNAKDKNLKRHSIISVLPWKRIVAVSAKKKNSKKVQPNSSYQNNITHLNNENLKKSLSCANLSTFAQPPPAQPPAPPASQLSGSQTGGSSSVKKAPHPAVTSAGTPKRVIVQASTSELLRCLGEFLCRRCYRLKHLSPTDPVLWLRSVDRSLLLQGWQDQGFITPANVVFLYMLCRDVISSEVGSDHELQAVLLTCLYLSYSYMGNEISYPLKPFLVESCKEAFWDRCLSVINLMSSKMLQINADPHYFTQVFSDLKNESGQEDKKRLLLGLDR
Chain of NACHT, LRR and PYD domains-containing protein 3 (Q96P20 whole entry, the tested form may be a part): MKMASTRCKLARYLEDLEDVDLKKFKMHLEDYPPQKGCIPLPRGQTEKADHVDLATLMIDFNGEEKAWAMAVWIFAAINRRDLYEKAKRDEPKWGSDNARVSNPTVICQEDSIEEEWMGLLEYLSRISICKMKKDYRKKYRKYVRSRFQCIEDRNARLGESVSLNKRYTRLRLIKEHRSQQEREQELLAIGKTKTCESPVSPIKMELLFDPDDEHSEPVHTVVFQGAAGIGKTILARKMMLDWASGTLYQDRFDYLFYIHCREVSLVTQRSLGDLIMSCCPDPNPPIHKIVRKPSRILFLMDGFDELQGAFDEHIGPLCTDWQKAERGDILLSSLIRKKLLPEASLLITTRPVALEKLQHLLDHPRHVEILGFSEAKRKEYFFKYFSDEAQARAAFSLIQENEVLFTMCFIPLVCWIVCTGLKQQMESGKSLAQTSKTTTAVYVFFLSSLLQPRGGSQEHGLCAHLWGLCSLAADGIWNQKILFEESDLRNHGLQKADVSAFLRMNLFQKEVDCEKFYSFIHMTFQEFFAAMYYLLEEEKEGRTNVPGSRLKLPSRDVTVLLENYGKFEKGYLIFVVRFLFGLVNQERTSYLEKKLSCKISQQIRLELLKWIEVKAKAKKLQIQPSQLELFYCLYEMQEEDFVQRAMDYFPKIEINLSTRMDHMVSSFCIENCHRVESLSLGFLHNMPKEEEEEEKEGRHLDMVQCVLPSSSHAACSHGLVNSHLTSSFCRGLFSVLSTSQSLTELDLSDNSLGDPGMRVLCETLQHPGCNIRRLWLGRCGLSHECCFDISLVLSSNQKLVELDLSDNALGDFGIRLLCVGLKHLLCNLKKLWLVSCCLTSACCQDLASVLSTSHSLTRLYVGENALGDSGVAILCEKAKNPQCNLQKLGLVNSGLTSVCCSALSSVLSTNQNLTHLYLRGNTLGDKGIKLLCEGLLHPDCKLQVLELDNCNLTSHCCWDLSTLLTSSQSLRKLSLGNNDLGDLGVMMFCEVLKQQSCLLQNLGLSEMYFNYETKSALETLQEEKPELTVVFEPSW
Chain of Cystic fibrosis transmembrane conductance regulator/Golgi-associated PDZ and coiled-coil motif-containing protein (P13569 whole entry, other chains not shown): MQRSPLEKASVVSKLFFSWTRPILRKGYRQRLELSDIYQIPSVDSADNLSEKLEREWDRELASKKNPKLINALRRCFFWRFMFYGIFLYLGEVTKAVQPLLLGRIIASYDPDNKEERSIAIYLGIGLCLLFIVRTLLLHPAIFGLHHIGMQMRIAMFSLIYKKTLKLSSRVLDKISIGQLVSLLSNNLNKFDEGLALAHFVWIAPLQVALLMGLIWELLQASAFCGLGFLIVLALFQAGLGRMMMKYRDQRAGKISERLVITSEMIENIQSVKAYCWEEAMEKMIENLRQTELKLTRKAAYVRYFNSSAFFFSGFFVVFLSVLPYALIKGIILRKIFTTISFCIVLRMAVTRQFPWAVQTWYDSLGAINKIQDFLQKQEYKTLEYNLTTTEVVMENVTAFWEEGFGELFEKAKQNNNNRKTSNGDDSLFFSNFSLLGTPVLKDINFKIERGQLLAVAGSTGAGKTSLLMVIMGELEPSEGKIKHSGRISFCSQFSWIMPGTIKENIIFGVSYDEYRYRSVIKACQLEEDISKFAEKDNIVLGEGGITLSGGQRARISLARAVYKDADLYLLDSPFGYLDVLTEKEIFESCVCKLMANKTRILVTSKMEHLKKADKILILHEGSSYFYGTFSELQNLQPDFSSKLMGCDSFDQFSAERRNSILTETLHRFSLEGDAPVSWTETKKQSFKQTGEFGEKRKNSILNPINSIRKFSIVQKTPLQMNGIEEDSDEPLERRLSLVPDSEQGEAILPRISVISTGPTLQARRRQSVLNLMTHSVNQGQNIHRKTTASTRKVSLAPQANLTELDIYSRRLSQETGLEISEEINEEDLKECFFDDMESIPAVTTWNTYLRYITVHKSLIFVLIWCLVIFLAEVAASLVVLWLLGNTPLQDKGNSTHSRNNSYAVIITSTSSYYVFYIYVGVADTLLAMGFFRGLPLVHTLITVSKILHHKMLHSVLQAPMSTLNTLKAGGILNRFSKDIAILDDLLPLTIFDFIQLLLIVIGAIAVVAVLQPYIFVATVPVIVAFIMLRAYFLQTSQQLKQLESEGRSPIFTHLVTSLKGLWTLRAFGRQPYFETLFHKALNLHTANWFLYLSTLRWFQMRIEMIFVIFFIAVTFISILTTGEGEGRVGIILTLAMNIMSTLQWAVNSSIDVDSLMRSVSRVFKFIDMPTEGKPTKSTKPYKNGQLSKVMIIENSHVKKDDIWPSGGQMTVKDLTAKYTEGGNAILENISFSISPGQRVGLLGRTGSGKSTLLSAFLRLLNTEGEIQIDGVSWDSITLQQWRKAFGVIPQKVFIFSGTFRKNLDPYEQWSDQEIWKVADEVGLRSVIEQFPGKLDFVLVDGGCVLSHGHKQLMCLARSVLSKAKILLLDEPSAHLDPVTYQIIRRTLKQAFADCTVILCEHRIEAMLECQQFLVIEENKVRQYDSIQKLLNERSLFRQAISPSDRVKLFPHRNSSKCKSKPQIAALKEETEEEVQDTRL

On to `N#Cc1c(Br)n(C2OC(CO)C(O)C2O)c2ncnc(N)c12` (configuration not stated), for which the EC50 in experiment [1] was > 91.1 µM (inactive); in [6], 0.482 µM (active); in experiment [7] it was > 67.5 µM (inactive); on Mu-type opioid receptor it was 92.4 µM (inactive); in experiment [8], > 91.1 µM (inactive). Also, the AC50 in [2] is 2.09 µM (active); in experiment [4], 184 µM (active). Besides, the IC50 (in [3]; in the experiment with HEK293 [5]) was > 67.5 µM (inactive) in each case.

On to `O=C(Nc1ccc(Cl)cc1)Nc1ccc(Cl)c(Cl)c1` [TRICLOCARBAN], for which the 50% inhibitory concentration (IC50) was 0.323 µM (active) in [9]; 0.362 µM (active) in experiment [10]; 0.362 µM (active) in experiment [11]; 0.228 µM (active) in experiment [12]; 1.49 µM (active) in experiment [13]; 0.335 µM (active) in experiment [14]. In addition, the IC50 in [16] was 0.897 µM (active); in experiment [17], 0.383 µM (active); in experiment [18] it was 0.288 µM (active). Besides, the values for the AC50 (in experiment [15]; in the experiment on INS1) were 14.1 µM (inconclusive) and 3.69 µM (active), respectively.

`COC(=O)[C@H]1[C@H]2C[C@@H]3c4[nH]c5cc(OC)ccc5c4CCN3C[C@H]2C[C@@H](OC(=O)/C=C/c2cc(OC)c(OC)c(OC)c2)[C@@H]1OC` [RESCINNAMINE]: the half-maximal activity concentration (AC50) in [19] is 142 µM (active).

Regarding `O=C(Nc1nc2ccccc2n1Cc1ccccc1)c1ccco1`, the IC50 is > 20 µM (inactive) on Tumor necrosis factor; > 20 µM (inactive) in experiment [20]; > 20 µM (inactive) in experiment [21]; > 79 µM (inactive) in the experiment on H9c2; > 20 µM (inactive) with HEK293 [23]. The figures for the EC50 (in experiment [22]; in the experiment on Streptococcus; on Streptokinase A) were 3.48 µM (active), > 150 µM (not active) and > 150 µM (not active), respectively.

On to `Cc1cccc(NS(=O)(=O)c2ccc(Oc3ccccc3)cc2)n1`, for which the AC50 with Vibrio harveyi [24] is 4.9 µM (active); in the experiment on Vibrio harveyi [24] (Vibrio harveyi), 5.99 µM (active); in the experiment on Vibrio harveyi [25] it was 2.4 µM (active).
